Starred links: 1 amine or outer side, 2 acyl side, 3 side chain; linkers in the order of their positions; H or OH if unused. Positions of bridges follow the written chain, without caps; N, C: chain ends. Non-standard residues stand in square brackets, D forms with d. Residues, ends and D or L forms follow the SMILES beside them. X1 = C[C@@H]1C[C@H](C(=O)[*:2])N([*:1])C1; Phe(4-F) = N[C@@H](Cc1ccc(F)cc1)C(=O)O; 1Nal = N[C@@H](Cc1cccc2ccccc12)C(=O)O; d(cisHyp) = O=C(O)[C@H]1C[C@@H](O)CN1; dDopa = N[C@H](Cc1ccc(O)c(O)c1)C(=O)O; Phe(2-F) = N[C@@H](Cc1ccccc1F)C(=O)O; NMeF = CN[C@@H](Cc1ccccc1)C(=O)O; dHyp = O=C(O)[C@H]1C[C@H](O)CN1; NMeNle = CCCC[C@H](NC)C(=O)O; dPip = O=C(O)[C@H]1CCCCN1; dAze = O=C(O)[C@H]1CCN1; Sar = CNCC(=O)O A value given as a limit tells only on which side of the number the result lay.

Assay [1] concerns the target T1, Human PD-L1/PD-1 (Homo sapiens, UniProt Q9NZQ7).
T1 construct: made in house; host or cells: HEK293T
In words: HTRF PD-1-Ig/PD-L1-His binding assay (human PD-L1). The settings on record: cluster symbol; read-out: HTRF IC50 cluster. In outline:
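Steps: truncated PD-1-Ig and PD-L1-His fusions are incubated in dPBS containing 0.1% (w/v) BSA and 0.05% (v/v) Tween-20. Detection antibodies are then added (Eu cryptate anti-Ig at 1 nM final, APC anti-His at 20 nM final), and time-resolved FRET is measured.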
On the technique in general: TR-FRET usually uses a lanthanide donor and a delayed reading to cut background.

Assay [2] deals with T2, LK35.2-hPD-L1 cells / PE-labeled PD-1-Ig (Homo sapiens, UniProt Q9NZQ7).
T2 construct: expressed in transfected cells; host or cells: LK35.2 mouse B cell line
Put plainly: LK35.2-hPD-L1 cell binding high-content screening assay. The assay is classed as cell-based. The settings on record: cell binding assay, cell line not given; cluster symbol; read-out: CBA IC50 cluster. In outline: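 Binding of PE-conjugated human PD-1-Ig (1 nM final) to human PD-L1 stably expressed on a mouse B-cell line (LK35.2) was measured by high-content imaging after washes. Compound and labeled PD-1-Ig were co-incubated 1 h at 37 °C with cells in RPMI/10% FCS.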

T2 sequence (Q9NZQ7 19-290): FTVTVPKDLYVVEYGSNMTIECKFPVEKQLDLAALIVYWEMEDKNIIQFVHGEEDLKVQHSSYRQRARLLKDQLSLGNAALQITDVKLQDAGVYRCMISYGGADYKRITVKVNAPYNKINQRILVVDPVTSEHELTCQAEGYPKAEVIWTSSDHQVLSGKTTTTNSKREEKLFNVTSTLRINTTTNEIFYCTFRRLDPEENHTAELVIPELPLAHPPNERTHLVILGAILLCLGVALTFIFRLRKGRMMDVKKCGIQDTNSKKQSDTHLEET
T1 sequence (Q9NZQ7 with tags, fused parts or gaps): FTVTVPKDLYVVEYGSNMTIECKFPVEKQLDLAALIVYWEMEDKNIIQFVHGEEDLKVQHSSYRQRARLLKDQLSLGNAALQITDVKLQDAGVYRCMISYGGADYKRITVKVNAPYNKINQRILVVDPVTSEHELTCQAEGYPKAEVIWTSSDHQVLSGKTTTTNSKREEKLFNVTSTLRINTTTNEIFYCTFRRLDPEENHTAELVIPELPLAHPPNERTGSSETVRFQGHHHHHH

In the case of `CCCC[C@H]1C(=O)N(C)CC(=O)N[C@@H](CC(=O)O)C(=O)N[C@@H](C(C)C)C(=O)N(C)[C@@H](Cc2ccccc2)C(=O)N[C@@H](Cc2ccc(O)cc2)C(=O)N(C)CC(=O)N[C@@H](Cc2c[nH]c3ccccc23)C(=O)N[C@@H](Cc2ccc(O)cc2)C(=O)N[C@@H](CC(C)C)C(=O)N[C@H](C(=O)NCC(N)=O)CSCC(=O)N[C@@H](Cc2ccccc2F)C(=O)N(C)[C@@H](Cc2ccccc2)C(=O)N1C` [Example 3568] ({CH2CO}-[Phe(2-F)][NMeF][NMeNle][Sar]DV[NMeF]Y[Sar]WYLCG-NH2; thioether N-13), the IC50 (commonly the point on the concentration scale where inhibition reaches its midpoint) in assay [1] was greater than 30.5 nM; in assay [2] it was 4.78 to 72.9 nM.

Turning to `CCCC[C@H]1C(=O)N(C)CC(=O)N[C@@H](CC(=O)O)C(=O)N[C@@H](C(C)C)C(=O)N(C)[C@@H](Cc2ccccc2)C(=O)N[C@@H](Cc2ccc(O)cc2)C(=O)N(C)CC(=O)N[C@@H](Cc2c[nH]c3ccccc23)C(=O)N[C@@H](Cc2ccc(O)cc2)C(=O)N[C@@H](CC(C)C)C(=O)N[C@H](C(=O)NCC(N)=O)CSCC(=O)N[C@@H](Cc2ccccc2)C(=O)N[C@@H](Cc2cccc3ccccc23)C(=O)N1C` [Example 3569] ({CH2CO}-F[1Nal][NMeNle][Sar]DV[NMeF]Y[Sar]WYLCG-NH2; thioether N-13), the IC50 in assay [1] was greater than 30.5 nM; in assay [2], greater than 74.3 nM.

Take `CCCC[C@H]1C(=O)N(C)CC(=O)N[C@@H](CC(=O)O)C(=O)N[C@@H](C(C)C)C(=O)N[C@@H](Cc2ccc(F)cc2)C(=O)N[C@@H](Cc2ccc(O)cc2)C(=O)N(C)CC(=O)N[C@@H](Cc2c[nH]c3ccccc23)C(=O)N[C@@H](Cc2ccc(O)cc2)C(=O)N[C@@H](CC(C)C)C(=O)N[C@H](C(=O)NCC(N)=O)CSCC(=O)N[C@@H](Cc2ccccc2)C(=O)N(C)[C@@H](Cc2ccccc2)C(=O)N1C` [Example 3570] ({CH2CO}-F[NMeF][NMeNle][Sar]DV[Phe(4-F)]Y[Sar]WYLCG-NH2; thioether N-13): the IC50 in assay [1] was greater than 30.5 nM; in assay [2], greater than 74.3 nM.

Consider `CCCC[C@H]1C(=O)N(C)CC(=O)N[C@@H](CC(=O)O)C(=O)N[C@@H](C(C)C)C(=O)N(C)[C@@H](Cc2ccccc2)C(=O)N[C@@H](Cc2ccc(O)cc2)C(=O)N2CCCC[C@@H]2C(=O)N[C@@H](Cc2c[nH]c3ccccc23)C(=O)N[C@@H](Cc2ccc(O)cc2)C(=O)N[C@@H](CC(C)C)C(=O)N[C@H](C(=O)NCC(N)=O)CSCC(=O)N[C@@H](Cc2ccccc2)C(=O)N(C)[C@@H](Cc2ccccc2)C(=O)N1C` [Example 3572] ({CH2CO}-F[NMeF][NMeNle][Sar]DV[NMeF]Y[dPip]WYLCG-NH2; thioether N-13), for which the half-inhibitory concentration (IC50) lay within 0.385 to 6.74 nM in assay [1] and 0.158 to 4.71 nM in assay [2].

In the case of `CCCC[C@H]1C(=O)N2CCCC[C@@H]2C(=O)N[C@@H](CC(=O)O)C(=O)N[C@@H](C(C)C)C(=O)N(C)[C@@H](Cc2ccccc2)C(=O)N[C@@H](Cc2ccc(O)cc2)C(=O)N(C)CC(=O)N[C@@H](Cc2c[nH]c3ccccc23)C(=O)N[C@@H](Cc2ccc(O)cc2)C(=O)N[C@@H](CC(C)C)C(=O)N[C@H](C(=O)NCC(N)=O)CSCC(=O)N[C@@H](Cc2ccccc2)C(=O)N(C)[C@@H](Cc2ccccc2)C(=O)N1C` [Example 3573] ({CH2CO}-F[NMeF][NMeNle][dPip]DV[NMeF]Y[Sar]WYLCG-NH2; thioether N-13), the IC50 was in the range of 6.76 to 30.3 nM in assay [1] and 4.78 to 72.9 nM in assay [2].

Regarding `CCCC[C@H]1C(=O)N2CCC[C@@H]2C(=O)N[C@@H](CC(=O)O)C(=O)N[C@@H](C(C)C)C(=O)N(C)[C@@H](Cc2ccccc2)C(=O)N[C@@H](Cc2ccc(O)cc2)C(=O)N2CCC[C@@H]2C(=O)N[C@@H](Cc2c[nH]c3ccccc23)C(=O)N[C@@H](Cc2ccc(O)cc2)C(=O)N[C@@H](CC(C)C)C(=O)N[C@H](C(=O)NCC(N)=O)CSCC(=O)N[C@@H](Cc2ccccc2)C(=O)N(C)[C@@H](Cc2ccccc2)C(=O)N1C` [Example 3574] (HELM PEPTIDE1{[O=C(C[*:3])[*:2]].F.[meF].[CCCC[C@@H](C(=O)[*:2])N(C)[*:1]].[dP].D.V.[meF].Y.[dP].W.Y.L.C.G.[am]}$PEPTIDE1,PEPTIDE1,1:R3-14:R3$$$V2.0), the values for the IC50 in assay [1] and in assay [2] were 6.76 to 30.3 nM and 0.158 to 4.71 nM, respectively.

As to `CCCC[C@H]1C(=O)N2C[C@H](O)C[C@@H]2C(=O)N[C@@H](CC(=O)O)C(=O)N[C@@H](C(C)C)C(=O)N(C)[C@@H](Cc2ccccc2)C(=O)N[C@@H](Cc2ccc(O)cc2)C(=O)N(C)CC(=O)N[C@@H](Cc2c[nH]c3ccccc23)C(=O)N[C@@H](Cc2ccc(O)cc2)C(=O)N[C@@H](CC(C)C)C(=O)N[C@H](C(=O)NCC(N)=O)CSCC(=O)N[C@@H](Cc2ccccc2)C(=O)N(C)[C@@H](Cc2ccccc2)C(=O)N1C` [Example 3575] ({CH2CO}-F[NMeF][NMeNle][d(cisHyp)]DV[NMeF]Y[Sar]WYLCG-NH2; thioether N-13), the figures for the IC50 in assay [1] and in assay [2] were 0.385 to 6.74 nM and 0.158 to 4.71 nM, respectively.

Take `CCCC[C@H]1C(=O)N(C)CC(=O)N[C@@H](CC(=O)O)C(=O)N[C@@H](C(C)C)C(=O)N(C)[C@@H](Cc2ccccc2)C(=O)N[C@@H](Cc2ccc(O)cc2)C(=O)N2C[C@@H](O)C[C@@H]2C(=O)N[C@@H](Cc2c[nH]c3ccccc23)C(=O)N[C@@H](Cc2ccc(O)cc2)C(=O)N[C@@H](CC(C)C)C(=O)N[C@H](C(=O)NCC(N)=O)CSCC(=O)N[C@@H](Cc2ccccc2)C(=O)N(C)[C@@H](Cc2ccccc2)C(=O)N1C` [Example 3576] ({CH2CO}-F[NMeF][NMeNle][Sar]DV[NMeF]Y[dHyp]WYLCG-NH2; thioether N-13): the IC50 in assay [1] is 6.76 to 30.3 nM; in assay [2], 4.78 to 72.9 nM.

In the case of `CCCC[C@H]1C(=O)N(C)CC(=O)N[C@@H](CC(=O)O)C(=O)N[C@@H](C(C)C)C(=O)N(C)[C@@H](Cc2ccccc2)C(=O)N[C@@H](Cc2ccc(O)cc2)C(=O)N2CC[C@@H]2C(=O)N[C@@H](Cc2c[nH]c3ccccc23)C(=O)N[C@@H](Cc2ccc(O)cc2)C(=O)N[C@@H](CC(C)C)C(=O)N[C@H](C(=O)NCC(N)=O)CSCC(=O)N[C@@H](Cc2ccccc2)C(=O)N(C)[C@@H](Cc2ccccc2)C(=O)N1C` [Example 3577] ({CH2CO}-F[NMeF][NMeNle][Sar]DV[NMeF]Y[dAze]WYLCG-NH2; thioether N-13), the half-inhibitory concentration (IC50) in assay [1] fell in the range of 0.385 to 6.74 nM; in assay [2], 0.158 to 4.71 nM.

For the molecule `CCCC[C@H]1C(=O)N(C)CC(=O)N[C@@H](CC(=O)O)C(=O)N[C@@H](C(C)C)C(=O)N(C)[C@@H](Cc2ccccc2)C(=O)N[C@@H](Cc2ccc(O)cc2)C(=O)N2C[C@H](C)C[C@@H]2C(=O)N[C@@H](Cc2c[nH]c3ccccc23)C(=O)N[C@@H](Cc2ccc(O)cc2)C(=O)N[C@@H](CC(C)C)C(=O)N[C@H](C(=O)NCC(N)=O)CSCC(=O)N[C@@H](Cc2ccccc2)C(=O)N(C)[C@@H](Cc2ccccc2)C(=O)N1C` [Example 3578] ({CH2CO}-F[NMeF][NMeNle][Sar]DV[NMeF]Y[X1]WYLCG-NH2; thioether N-13), the IC50 in assay [1] was in the range of 0.385 to 6.74 nM; in assay [2], 0.158 to 4.71 nM.

Consider `CCCC[C@H]1C(=O)N(C)CC(=O)N[C@@H](CC(=O)O)C(=O)N[C@@H](C(C)C)C(=O)N(C)[C@@H](Cc2ccccc2)C(=O)N[C@@H](Cc2ccc(O)cc2)C(=O)N(C)CC(=O)N[C@@H](Cc2c[nH]c3ccccc23)C(=O)N[C@H](Cc2ccc(O)c(O)c2)C(=O)N[C@@H](CC(C)C)C(=O)N[C@H](C(=O)NCC(N)=O)CSCC(=O)N[C@@H](Cc2ccccc2)C(=O)N(C)[C@@H](Cc2ccccc2)C(=O)N1C` [Example 3579] ({CH2CO}-F[NMeF][NMeNle][Sar]DV[NMeF]Y[Sar]W[dDopa]LCG-NH2; thioether N-13), for which the IC50 in assay [1] lay within 6.76 to 30.3 nM; in assay [2] it was 0.158 to 4.71 nM.

As to `CCCC[C@H]1C(=O)N2C[C@H](C)C[C@@H]2C(=O)N[C@@H](CC(=O)O)C(=O)N[C@@H](C(C)C)C(=O)N(C)[C@@H](Cc2ccccc2)C(=O)N[C@@H](Cc2ccc(O)cc2)C(=O)N(C)CC(=O)N[C@@H](Cc2c[nH]c3ccccc23)C(=O)N[C@@H](Cc2ccc(O)cc2)C(=O)N[C@@H](CC(C)C)C(=O)N[C@H](C(=O)NCC(N)=O)CSCC(=O)N[C@@H](Cc2ccccc2)C(=O)N(C)[C@@H](Cc2ccccc2)C(=O)N1C` [Example 3580] ({CH2CO}-F[NMeF][NMeNle][X1]DV[NMeF]Y[Sar]WYLCG-NH2; thioether N-13), the figures for the IC50 in assay [1] and in assay [2] were 0.385 to 6.74 nM and 0.158 to 4.71 nM, respectively.

On to `CCCC[C@H]1C(=O)N2CC[C@@H]2C(=O)N[C@@H](CC(=O)O)C(=O)N[C@@H](C(C)C)C(=O)N(C)[C@@H](Cc2ccccc2)C(=O)N[C@@H](Cc2ccc(O)cc2)C(=O)N(C)CC(=O)N[C@@H](Cc2c[nH]c3ccccc23)C(=O)N[C@@H](Cc2ccc(O)cc2)C(=O)N[C@@H](CC(C)C)C(=O)N[C@H](C(=O)NCC(N)=O)CSCC(=O)N[C@@H](Cc2ccccc2)C(=O)N(C)[C@@H](Cc2ccccc2)C(=O)N1C` [Example 3582] ({CH2CO}-F[NMeF][NMeNle][dAze]DV[NMeF]Y[Sar]WYLCG-NH2; thioether N-13), for which the IC50 lay within 6.76 to 30.3 nM in assay [1] and 4.78 to 72.9 nM in assay [2].

In the case of `CCCC[C@H]1C(=O)N2C[C@@H](O)C[C@@H]2C(=O)N[C@@H](CC(=O)O)C(=O)N[C@@H](C(C)C)C(=O)N(C)[C@@H](Cc2ccccc2)C(=O)N[C@@H](Cc2ccc(O)cc2)C(=O)N(C)CC(=O)N[C@@H](Cc2c[nH]c3ccccc23)C(=O)N[C@@H](Cc2ccc(O)cc2)C(=O)N[C@@H](CC(C)C)C(=O)N[C@H](C(=O)NCC(N)=O)CSCC(=O)N[C@@H](Cc2ccccc2)C(=O)N(C)[C@@H](Cc2ccccc2)C(=O)N1C` [Example 3588] ({CH2CO}-F[NMeF][NMeNle][dHyp]DV[NMeF]Y[Sar]WYLCG-NH2; thioether N-13), the IC50 lay in the range of 6.76 to 30.3 nM in assay [1] and 0.158 to 4.71 nM in assay [2].

The record behind these values is patent publication US9850283B2, “Macrocyclic inhibitors of the PD-1/PD-L1 and CD80(B7-1)/PD-L1 protein/protein interactions” (BRISTOL-MYERS SQUIBB COMPANY, priority 2013, dated 2017).
